Test: recombinant barcode read abundance after kanamycin selection (control-corrected) (log10(CPM+1)); higher = more efficient recombination; sequences stand for … in AGTGCAGAGAAAATCGGCCAGTTTTCTCTGCCTGCAGTCCGCATGCCGT…AGATTTATGCAGCGGACTGCCTTTCTCCCAAAGTGATAAACCGGACAGTATCATGGACCGGTTTTCCCGGTAATCCGTATTTGCAAGGTTGGTTTCACT; site = the 11-nt target
Procedure, shortened: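 Pooled E. coli screen pairing targets with IS621 bridge RNA target-binding loops. Each oligo (promoter, target, barcode, J23119-driven first 104 bridge RNA bases) was Gibson-cloned into a vector with the remaining 73 bp and T7-inducible recombinase, then co-electroporated with a donor plasmid. Two replicates each were plated on chloramphenicol/ampicillin LB agar (control) or chloramphenicol/ampicillin/kanamycin with 0.1 mM IPTG. Recombination efficiency is recombinant-junction barcode counts as CPM, averaged, control-corrected, reported as log10(CPM+1).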
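Note: IS621 recombinase and bridge RNA in Escherichia coli cells.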

Row | Sequence | recombinant barcode read abundance (log10)
1 | TATGGTACTTGGGTTCTAACCTGTTGCGT (site TATGGTACTAC) | 2.22
2 | TATGGTTCTTGGGTTCTAACCTGTTGCCT (site TATGCTTCTAA) | 0.0349
3 | TATGGTTCTTGGGTTCTAACCTGTTGCCT (site TATGGTTCTAG) | 0.502
4 | TATTAGACTTGGGTTCTAACCTGTTGCCT (site AATTAGACTAG) | 0.158
5 | TATTAGACTTGGGTTCTAACCTGTTGCCT (site CATTAGACTAG) | 0.13
6 | TATTAGACTTGGGTTCTAACCTGTTGCCT (site GATTAGACTAG) | 0.209
7 | TATTAGACTTGGGTTCTAACCTGTTGCCT (site TATTAGACTAG) | 0.225
8 | TATTCTACTTGGGTTCTAACCTGTTGCGT (site TATTCTACTAC) | 0.0342
9 | TATTCTACTTGGGTTCTAACCTGTTGCGT (site TATTCTACTCC) | 0.365
10 | TATTCTACTTGGGTTCTAACCTGTTGCGT (site TATTCTACTGC) | 0.0341
11 | TATTCTACTTGGGTTCTAACCTGTTGCGT (site TATTCTACTTC) | 0.0549
12 | TATTGGACTTGGGTTCTAACCTGTTGCAC (site TATTGGACTAT) | 0.0463
13 | TATTGGACTTGGGTTCTAACCTGTTGCAC (site TATTGGACTCT) | 0.122
14 | TATTGGACTTGGGTTCTAACCTGTTGCAC (site TATTGGACTGT) | 0.0567
15 | TATTGGACTTGGGTTCTAACCTGTTGCAC (site TATTGGACTTT) | 0.0673
16 | TATTGGACTTGGGTTCTAACCTGTTGCAT (site TATTGGACTAT) | 0.421
17 | TATTGGACTTGGGTTCTAACCTGTTGCAT (site TATTGGACTCT) | 0.153
18 | TATTGGACTTGGGTTCTAACCTGTTGCAT (site TATTGGACTGT) | 0.155
19 | TATTGGACTTGGGTTCTAACCTGTTGCAT (site TATTGGACTTT) | 0.101
20 | TATTGGACTTGGGTTCTAACCTGTTGCTT (site AATTGGACTAA) | 0.0764
21 | TATTGGACTTGGGTTCTAACCTGTTGCTT (site CATTGGACTAA) | 0.0882
22 | TATTGGACTTGGGTTCTAACCTGTTGCTT (site GATTGGACTAA) | 0.0435
23 | TATTGGACTTGGGTTCTAACCTGTTGCTT (site TATTGGACTAA) | 0.141
24 | TATTTGTCTTGGGTTCTAACCTGTTGCCA (site CACTTGTCTTG) | 0.023
25 | TATTTGTCTTGGGTTCTAACCTGTTGCCA (site TATTTGTCTTG) | 0.156
26 | TCAAGCCCTTGGGTTCTAACCTGTTGCAG (site CAGTCTACTAC) | 0.011

Row | Sequence | recombinant barcode read abundance (log10)
27 | TCAAGCCCTTGGGTTCTAACCTGTTGCAG (site TCAAGCCCTCT) | 0.927
28 | TCAAGGCCTTGGGTTCTAACCTGTTGCCT (site ACAAGGCCTAG) | 0.147
29 | TCAAGGCCTTGGGTTCTAACCTGTTGCCT (site CCAAGGCCTAG) | 0.084
30 | TCAAGGCCTTGGGTTCTAACCTGTTGCCT (site GCAAGGCCTAG) | 0.106
31 | TCAAGGCCTTGGGTTCTAACCTGTTGCCT (site TCAAGGCCTAG) | 0.32
32 | TCAATCCCTTGGGTTCTAACCTGTTGCCT (site TCAATCCCTAG) | 0.326
33 | TCAATCCCTTGGGTTCTAACCTGTTGCCT (site TCCATCCCTAG) | 0.048
34 | TCAATCCCTTGGGTTCTAACCTGTTGCCT (site TCGATCCCTAG) | 0.173
35 | TCAATCCCTTGGGTTCTAACCTGTTGCCT (site TCTATCCCTAG) | 0.0124
36 | TCACACACTTGGGTTCTAACCTGTTGCCT (site CTCAGACCTCA) | 0.0319
37 | TCACACACTTGGGTTCTAACCTGTTGCCT (site TCACACACTAG) | 1.06
38 | TCACCGCCTTGGGTTCTAACCTGTTGCCT (site ACACCGCCTAG) | 0.75
39 | TCACCGCCTTGGGTTCTAACCTGTTGCCT (site CCACCGCCTAG) | 0.141
40 | TCACCGCCTTGGGTTCTAACCTGTTGCCT (site GCACCGCCTAG) | 0.0186
41 | TCACCGCCTTGGGTTCTAACCTGTTGCCT (site TCACCGCCTAG) | 0.172
42 | TCACCTGCTTGGGTTCTAACCTGTTGCCT (site TCACATGCTAG) | 0.0199
43 | TCACCTGCTTGGGTTCTAACCTGTTGCCT (site TCACCTGCTAG) | 0.961
44 | TCACCTGCTTGGGTTCTAACCTGTTGCCT (site TCACGTGCTAG) | 0.192
45 | TCACCTGCTTGGGTTCTAACCTGTTGCCT (site TCACTTGCTAG) | 0.0607
46 | TCACGTCCTTGGGTTCTAACCTGTTGCGG (site TCACGTCCTCC) | 1.3
47 | TCACGTCCTTGGGTTCTAACCTGTTGCGG (site TTACGTCCTCC) | 0.0483
48 | TCACGTGCTTGGGTTCTAACCTGTTGCCT (site TCACATGCTAG) | 0.0819
49 | TCACGTGCTTGGGTTCTAACCTGTTGCCT (site TCACCTGCTAG) | 0.105
50 | TCACGTGCTTGGGTTCTAACCTGTTGCCT (site TCACGTGCTAG) | 0.563
51 | TCACGTGCTTGGGTTCTAACCTGTTGCCT (site TCACTTGCTAG) | 0.121
52 | TCACTCTCTTGGGTTCTAACCTGTTGCCT (site TAACTCTCTAG) | 0.111

Row | Sequence | recombinant barcode read abundance (log10)
53 | TCACTCTCTTGGGTTCTAACCTGTTGCCT (site TCACTCTCTAG) | 1.22
54 | TCACTCTCTTGGGTTCTAACCTGTTGCCT (site TGACTCTCTAG) | 0.0273
55 | TCACTCTCTTGGGTTCTAACCTGTTGCCT (site TTACTCTCTAG) | 0.062
56 | TCACTTCCTTGGGTTCTAACCTGTTGCCT (site TCACCTTCTAG) | 0.121
57 | TCACTTCCTTGGGTTCTAACCTGTTGCCT (site TCACTTCCTAG) | 0.0238
58 | TCACTTGCTTGGGTTCTAACCTGTTGCCT (site TCACATGCTAG) | 0.0105
59 | TCACTTGCTTGGGTTCTAACCTGTTGCCT (site TCACCTGCTAG) | 0.0436
60 | TCACTTGCTTGGGTTCTAACCTGTTGCCT (site TCACGTGCTAG) | 0.177
61 | TCACTTGCTTGGGTTCTAACCTGTTGCCT (site TCACTTGCTAG) | 0.215
62 | TCAGAAGCTTGGGTTCTAACCTGTTGCCG (site ATGAGGCCTTA) | 0.022
63 | TCAGAAGCTTGGGTTCTAACCTGTTGCCG (site TCAGAAGCTCG) | 0.689
64 | TCAGCCTCTTGGGTTCTAACCTGTTGCCT (site CTGTGTCCTCC) | 0.11
65 | TCAGCCTCTTGGGTTCTAACCTGTTGCCT (site TCAGCCTCTAG) | 1.72
66 | TCAGCGACTTGGGTTCTAACCTGTTGCCT (site TCAGCGACTAG) | 0.481
67 | TCAGCGACTTGGGTTCTAACCTGTTGCCT (site TCCGCGACTAG) | 0.139
68 | TCAGCGACTTGGGTTCTAACCTGTTGCCT (site TCGGCGACTAG) | 0.27
69 | TCAGCGACTTGGGTTCTAACCTGTTGCCT (site TCTGCGACTAG) | 0.39
70 | TCAGGAGCTTGGGTTCTAACCTGTTGCTA (site CATATGACTAG) | 0.288
71 | TCAGGAGCTTGGGTTCTAACCTGTTGCTA (site TCAGGAGCTTA) | 0.325
72 | TCATAGCCTTGGGTTCTAACCTGTTGCTG (site TCAAAGCCTCA) | 0.131
73 | TCATAGCCTTGGGTTCTAACCTGTTGCTG (site TCACAGCCTCA) | 0.0283
74 | TCATAGCCTTGGGTTCTAACCTGTTGCTG (site TCAGAGCCTCA) | 0.087
75 | TCATAGCCTTGGGTTCTAACCTGTTGCTG (site TCATAGCCTCA) | 0.62
76 | TCATATTCTTGGGTTCTAACCTGTTGCCT (site TCAAATTCTAG) | 0.17
77 | TCATATTCTTGGGTTCTAACCTGTTGCCT (site TCACATTCTAG) | 0.0604

Source: the supplement of paper PMC11208160
